Reference: publication PMC10821064, “Mode of Antibacterial Action of Tomatidine C3-Diastereoisomers” (Molecules, 2024)

Biological target: T1, ATP synthase subunit c (Escherichia coli, UniProt P68699)
T1 construct: gene atpE; native ATP synthase in membrane vesicles of E. coli ATCC 25922; with whole ATP synthase complex
Experiment: inhibition of NADH-driven ATP synthesis in E. coli membrane vesicles, luminescence (ATPlite), Dixon-type Ki
Type: biochemical
Conditions: read-out: Ki (μM) In Vitro

T1 sequence (P68699 whole entry): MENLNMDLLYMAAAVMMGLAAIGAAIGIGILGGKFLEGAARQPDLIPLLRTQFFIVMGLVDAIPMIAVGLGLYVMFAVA

| SMILES | Ki [µM] |
| --- | --- |
| C[C@H]1CCC2(NC1)O[C@H]1C[C@H]3[C@@H]4CCC5C[C@H](NCCN)CC[C@]5(C)[C@H]4CC[C@]3(C)[C@H]1[C@@H]2C (some centres unmarked) [TM-03] | 3.5 |
| C[C@H]1CCC2(NC1)O[C@H]1C[C@H]3[C@@H]4CCC5C[C@@H](NCCN)CC[C@]5(C)[C@H]4CC[C@]3(C)[C@H]1[C@@H]2C (some centres unmarked) [TM-02] | 1.1 |
